In patent US6479478B1, “Carbapenem compounds” (Wyeth Lederle Japan, Ltd., priority 1998, dated 2002):
Values after ≈ are worked out from the molar mass of the structure shown.

How the values were obtained:
Test in all cases: Antibacterial test, agar plate dilution method (MIC)
Assay type in all cases: cell-based
B. subtilis ATCC 6633 = conditions: Bacillus subtilis, ATCC6633, MH agar, 37° C., 18 hours
Method: (§1) The antibacterial activities were tested by an agar plate dilution method in accordance with the standard method of The Japanese Chemotherapy Society [Chemotherapy, Vol.29, 76-79(1981)]. A Mulluer-Hinton (MH) agar liquid medium of a test microorganism was cultured overnight at 37° C. and the resultant culture medium was diluted with a buffered saline gelatin (BSG) solution to contain approximately 10^6 cells of the test microorganisms per milliliter, and then the diluted solution was inoculated with a micro-planter at the rate of approximately 5 μl on a MH agar medium containing a test compound. This medium was then incubated at 37° C. for 18 hours. The minimum inhibitory concentration (MIC) is determined as a minimum concentration in which no test microorganism could grow.
(§2) It is noted here that the test organisms used were all standard strains, and test compounds were Compound (8) and (15) obtained in Examples mentioned later.

E. aerogenes ATCC 13048 = conditions: Klebsiella aerogenes, ATCC13048, MH agar, 37° C., 18 hours
Method: as §1, §2

E. cloacae 963 = conditions: Enterobacter cloacae, MH agar, 37° C., 18 hours
Method: as §1, §2

E. coli K-12 C600 = conditions: Escherichia coli, K12C600, MH agar, 37° C., 18 hours
Method: as §1, §2

E. coli NIHJ JC-2 = conditions: Escherichia coli, NIHJJC2, MH agar, 37° C., 18 hours
Method: as §1, §2

K. pneumoniae PCI-602 = conditions: Klebsiella pneumoniae, PCI602, MH agar, 37° C., 18 hours
Method: as §1, §2

M. luteus ATCC 9341 = conditions: Micrococcus luteus, ATCC9341, MH agar, 37° C., 18 hours
Method: as §1, §2

M. morganii IFO 3848 = conditions: Morganella morganii, IFO3848, MH agar, 37° C., 18 hours
Method: as §1, §2

P. aeruginosa IFO 3445 = conditions: Pseudomonas aeruginosa, IFO3445, MH agar, 37° C., 18 hours
Method: as §1, §2

P. aeruginosa NCTC 10490 = conditions: Pseudomonas aeruginosa, NCTC10490, MH agar, 37° C., 18 hours
Method: as §1, §2

P. aeruginosa PAO 1 = conditions: Pseudomonas aeruginosa, PAO1, MH agar, 37° C., 18 hours
Method: as §1, §2

P. mirabilis IFO 3849 = conditions: Proteus mirabilis, IFO3849, MH agar, 37° C., 18 hours
Method: as §1, §2

P. rettgeri IFO 3850 = conditions: Providencia rettgeri, IFO3850, MH agar, 37° C., 18 hours
Method: as §1, §2

P. vulgalis HX-19 = conditions: MH agar, 37° C., 18 hours
Method: as §1, §2

P. vulgaris OX-19 = conditions: Proteus vulgaris, OX19, MH agar, 37° C., 18 hours
Method: as §1, §2

S. aureus FDA 209 JC-1 = conditions: Staphylococcus aureus, FDA209, MH agar, 37° C., 18 hours
Method: as §1, §2

S. aureus MS 353 = conditions: Staphylococcus aureus, MS353, MH agar, 37° C., 18 hours
Method: as §1, §2

S. aureus Terajima = conditions: Staphylococcus aureus, MH agar, 37° C., 18 hours
Method: as §1, §2

S. enteritridis G14 = conditions: MH agar, 37° C., 18 hours
Method: as §1, §2

S. paratyphi 1015 = conditions: Salmonella enterica, MH agar, 37° C., 18 hours
Method: as §1, §2

S. pyogenes Cook = conditions: Streptococcus pyogenes, MH agar, 37° C., 18 hours
Method: as §1, §2

S. schottmuelleri 8006 = conditions: MH agar, 37° C., 18 hours
Method: as §1, §2

S. typhi 901 = conditions: Salmonella enterica, 18 h
Method: as §1, §2

S. typhimurium 11D971 = conditions: Salmonella enterica, MH agar, 37° C., 18 hours
Method: as §1, §2

SMILES: C[C@@H](O)[C@H]1C(=O)N2C(C(=O)O)=C(SC3CN(C4=NCCN4C)C3)[C@H](C)[C@H]12 [Compound (8), (1R,5S,6S)-2-[1-(1-methy-2-imidazolin-2-yl)azetidin-3-yl]-thio-6-[(R)-1-hydroxyethyl]-1-methylcarbapen-2-em-3-carbolic acid]
- MIC (B. subtilis ATCC 6633): 0.025 µg/mL (≈ 0.0657 µM)
- MIC (E. aerogenes ATCC 13048): 0.1 µg/mL (≈ 0.263 µM)
- MIC (E. cloacae 963): 0.1 µg/mL (≈ 0.263 µM)
- MIC (E. coli K-12 C600): 0.1 µg/mL (≈ 0.263 µM)
- MIC (E. coli NIHJ JC-2): 0.025 µg/mL (≈ 0.0657 µM)
- MIC (K. pneumoniae PCI-602): 0.1 µg/mL (≈ 0.263 µM)
- MIC (M. luteus ATCC 9341): 0.025 µg/mL (≈ 0.0657 µM)
- MIC (M. morganii IFO 3848): 0.2 µg/mL (≈ 0.526 µM)
- MIC (P. aeruginosa IFO 3445): 3.13 µg/mL (≈ 8.23 µM)
- MIC (P. aeruginosa NCTC 10490): 12.5 µg/mL (≈ 32.9 µM)
- MIC (P. aeruginosa PAO 1): 12.5 µg/mL (≈ 32.9 µM)
- MIC (P. mirabilis IFO 3849): 0.78 µg/mL (≈ 2.05 µM)
- MIC (P. rettgeri IFO 3850): 0.05 µg/mL (≈ 0.131 µM)
- MIC (P. vulgalis HX-19): 0.39 µg/mL (≈ 1.03 µM)
- MIC (P. vulgaris OX-19): 0.2 µg/mL (≈ 0.526 µM)
- MIC (S. aureus FDA 209 JC-1): 0.025 µg/mL (≈ 0.0657 µM)
- MIC (S. aureus MS 353): 0.013 µg/mL (≈ 0.0342 µM)
- MIC (S. aureus Terajima): 0.013 µg/mL (≈ 0.0342 µM)
- MIC (S. enteritridis G14): 0.2 µg/mL (≈ 0.526 µM)
- MIC (S. paratyphi 1015): 0.1 µg/mL (≈ 0.263 µM)
- MIC (S. pyogenes Cook): ≤ 6 ng/mL
- MIC (S. schottmuelleri 8006): 0.1 µg/mL (≈ 0.263 µM)
- MIC (S. typhi 901): 0.025 µg/mL (≈ 0.0657 µM)
- MIC (S. typhimurium 11D971): 0.05 µg/mL (≈ 0.131 µM)

SMILES: C[C@@H](O)[C@H]1C(=O)N2C(C(=O)O)=C(SC3CN(C4=NCCN4)C3)[C@H](C)[C@H]12 [Compound (15), (1R,5S,6S)-2-[1-(1,3-imidazolin-2-yl)azetidin-3-yl]thio-6-[(R)-1-hydroxyethyl]-1-methylcarbapen-2-em-3-carbolic acid]
- MIC (B. subtilis ATCC 6633): 0.025 µg/mL (≈ 0.0682 µM)
- MIC (E. aerogenes ATCC 13048): 0.1 µg/mL (≈ 0.273 µM)
- MIC (E. cloacae 963): 0.05 µg/mL (≈ 0.136 µM)
- MIC (E. coli K-12 C600): 0.2 µg/mL (≈ 0.546 µM)
- MIC (E. coli NIHJ JC-2): 0.025 µg/mL (≈ 0.0682 µM)
- MIC (K. pneumoniae PCI-602): 0.05 µg/mL (≈ 0.136 µM)
- MIC (M. luteus ATCC 9341): 0.05 µg/mL (≈ 0.136 µM)
- MIC (M. morganii IFO 3848): 1.56 µg/mL (≈ 4.26 µM)
- MIC (P. aeruginosa IFO 3445): 1.56 µg/mL (≈ 4.26 µM)
- MIC (P. aeruginosa NCTC 10490): 1.56 µg/mL (≈ 4.26 µM)
- MIC (P. aeruginosa PAO 1): 3.13 µg/mL (≈ 8.54 µM)
- MIC (P. mirabilis IFO 3849): 0.78 µg/mL (≈ 2.13 µM)
- MIC (P. rettgeri IFO 3850): 0.025 µg/mL (≈ 0.0682 µM)
- MIC (P. vulgalis HX-19): 0.78 µg/mL (≈ 2.13 µM)
- MIC (P. vulgaris OX-19): 0.78 µg/mL (≈ 2.13 µM)
- MIC (S. aureus FDA 209 JC-1): 0.025 µg/mL (≈ 0.0682 µM)
- MIC (S. aureus MS 353): 0.013 µg/mL (≈ 0.0355 µM)
- MIC (S. aureus Terajima): ≤ 0.006 µg/mL
- MIC (S. enteritridis G14): 1.56 µg/mL (≈ 4.26 µM)
- MIC (S. paratyphi 1015): 0.1 µg/mL (≈ 0.273 µM)
- MIC (S. pyogenes Cook): ≤ 6 ng/mL
- MIC (S. schottmuelleri 8006): 0.1 µg/mL (≈ 0.273 µM)
- MIC (S. typhi 901): 0.025 µg/mL (≈ 0.0682 µM)
- MIC (S. typhimurium 11D971): 0.05 µg/mL (≈ 0.136 µM)
